Measured values from PubChem BioAssay (NCI).
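Five concentrations, 48 hours, 96-well plates. Abbreviation: GI50, concentration required for 50% inhibition of growth. Definition used: TGI = concentration required for complete inhibition of growth.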

Key:
Experiment in all cases: growth of human tumour cells (NCI), 48 h
HCT-15 colon = system: HCT-15 colon
UACC-62 melanoma = system: UACC-62 melanoma
CCRF-CEM leukemia = system: CCRF-CEM leukemia
SK-OV-3 ovarian = system: SK-OV-3 ovarian
A498 renal = system: A498 renal
CAKI-1 renal = system: CAKI-1 renal
NCI-H460 lung = system: NCI-H460 lung
A549 NSCLC = system: A549 NSCLC
MOLT-4 leukemia = system: MOLT-4 leukemia
NCI-H23 lung = system: NCI-H23 lung
TK-10 renal = system: TK-10 renal
OVCAR-3 ovarian = system: OVCAR-3 ovarian
UO-31 renal = system: UO-31 renal
BT-549 breast = system: BT-549 breast
RXF 393 renal = system: RXF 393 renal
NCI-H226 lung = system: NCI-H226 lung
M14 melanoma = system: M14 melanoma
HCT-116 colon = system: HCT-116 colon
786-0 renal = system: 786-0 renal
HOP-92 NSCLC = system: HOP-92 NSCLC
SF-295 CNS = system: SF-295 CNS
HT29 colon = system: HT29 colon
MALME-3M melanoma = system: MALME-3M melanoma
SR leukemia = system: SR leukemia
DU-145 prostate = system: DU-145 prostate
UACC-257 melanoma = system: UACC-257 melanoma
HCC-2998 colon = system: HCC-2998 colon
OVCAR-5 ovarian = system: OVCAR-5 ovarian
OVCAR-8 ovarian = system: OVCAR-8 ovarian
MDA-MB-231 breast = system: MDA-MB-231 breast

SMILES: Cc1ccc(CCC(=O)Nc2ncc(Cc3cc(Cl)ccc3Cl)s2)o1
- GI50 (HCT-15 colon): 54.6 nM
- TGI (HCT-15 colon): > 100000 nM
- GI50 (UACC-62 melanoma): 240 nM
- TGI (UACC-62 melanoma): > 100000 nM
- GI50 (CCRF-CEM leukemia): 197 nM
- TGI (CCRF-CEM leukemia): > 100000 nM
- GI50 (SK-OV-3 ovarian): 399 nM
- TGI (SK-OV-3 ovarian): > 100000 nM
- GI50 (A498 renal): 171 nM
- TGI (A498 renal): 801 nM
- GI50 (CAKI-1 renal): 114 nM
- TGI (CAKI-1 renal): 7360 nM
- GI50 (NCI-H460 lung): 233 nM
- GI50 (A549 NSCLC): 376 nM
- TGI (A549 NSCLC): > 58800 nM
- GI50 (MOLT-4 leukemia): 222 nM
- TGI (MOLT-4 leukemia): > 44200 nM
- GI50 (NCI-H23 lung): 471 nM
- TGI (NCI-H23 lung): > 37700 nM
- GI50 (TK-10 renal): 2810 nM
- TGI (TK-10 renal): > 66500 nM
- GI50 (OVCAR-3 ovarian): 172 nM
- TGI (OVCAR-3 ovarian): 1360 nM
- GI50 (UO-31 renal): 594 nM
- TGI (UO-31 renal): 6430 nM
- GI50 (BT-549 breast): 290 nM
- TGI (BT-549 breast): 2720 nM
- GI50 (RXF 393 renal): 256 nM
- TGI (RXF 393 renal): 1750 nM
- GI50 (NCI-H226 lung): 901 nM
- GI50 (M14 melanoma): 91 nM
- TGI (M14 melanoma): 3970 nM
- GI50 (HCT-116 colon): 69.6 nM
- TGI (HCT-116 colon): 2140 nM
- GI50 (786-0 renal): 692 nM
- TGI (786-0 renal): 4190 nM
- GI50 (HOP-92 NSCLC): 2330 nM
- TGI (HOP-92 NSCLC): > 45300 nM
- GI50 (SF-295 CNS): 176 nM
- TGI (SF-295 CNS): 2150 nM
- GI50 (HT29 colon): 54 nM
- GI50 (MALME-3M melanoma): 945 nM
- TGI (MALME-3M melanoma): > 100000 nM
- GI50 (SR leukemia): 55.7 nM
- TGI (SR leukemia): 18900 nM
- GI50 (DU-145 prostate): 351 nM
- TGI (DU-145 prostate): > 32900 nM
- GI50 (UACC-257 melanoma): 13400 nM
- TGI (UACC-257 melanoma): > 100000 nM
- GI50 (HCC-2998 colon): 312 nM
- TGI (HCC-2998 colon): 6410 nM
- GI50 (OVCAR-5 ovarian): 455 nM
- TGI (OVCAR-5 ovarian): 14100 nM
- GI50 (OVCAR-8 ovarian): 432 nM
- TGI (OVCAR-8 ovarian): > 26100 nM
- GI50 (MDA-MB-231 breast): 388 nM
